Test results as given in patent US12129248B2, “Chromobox protein inhibitors and uses thereof” (Dana-Farber Cancer Institute, Inc., priority 2016, dated 2024).

How the values were obtained:
[1] = tested on: HCT292 human lung cancer cells; test: HCT292 cell viability (crystal violet / ATPlite); format: cell-based; settings: for IC50 / viability at 10 µM / viability at 50 µM / viability at 20 µM: Homo sapiens; for IC50: Table 4, assay not given, cited among cellular activity Tables 3-9 (HCT292); for % Viability / viability at 10 µM / viability at 50 µM / viability at 20 µM: HCT292 cells, relative to DMSO; for % Viability: 96 hours; for viability at 10 µM / viability at 50 µM / viability at 20 µM: 96 h
Method: Lastly, the biological activity of lead compounds was assessed in cancer cells lines determined to be sensitive to CBX inhibition. First, a cell line screening for CBX2 and CBX3 dependence/sensitivity was conducted using shRNAs. […] These cell lines were utilized to evaluate the potential cellular activity of a panel of CBX inhibitors (Tables 3-9).
Briefly, HCT292 cells were treated 24 hours after passage; the compounds in DMSO were added directly to their media. Initially, which cells caused cell death was checked by fixing and staining the cells with crystal violet 96-hours post treatment and then reading the absorbance using the Envision and comparing the signal to a DMSO control. This was done as a preliminary viability screen prior to the ATPlite assay to determine which compounds HCT292 cells were and H661 cells were not sensitive to. […] Thus, a cellular system to evaluate the activity of small molecule CBX inhibitors was established.

Human His6-CBX7 = Human His6-CBX7 (Homo sapiens (Human), UniProt O95931); test: CBX7 AlphaScreen assay (binding of CBX7 chromodomain to H3K27me3 peptide); settings: for IC50: average, His6-CBX7 / biotinylated-H3K27me3, read-out: AVG CBX7 Alpha IC50
Sequence of Human His6-CBX7 (O95931 11-69): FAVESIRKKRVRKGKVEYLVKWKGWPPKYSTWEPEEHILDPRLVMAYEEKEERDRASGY
Description: A biochemical assay was developed based on nanoparticle AlphaScreen assay to monitor the binding of recombinant CBX chromodomain (CBX7) to a methylated peptide (H3K27me3).
The primary assay uses recombinant CBX chromodomain and synthetic, trimethylated H3 histone tail peptide. When CBX/histone tail-binding occurs, AlphaScreen beads are brought in close proximity, resulting in singlet molecular oxygen transfer and production of a luminescent signal. Assay positives inhibiting the binding interaction are therefore expected to prevent complex formation, diminishing signal intensity. The AlphaScreen technology features an anti-Stokes shift in detection: due to energy transfer between beads by singlet oxygen and internal chemical reactions within the acceptor bead, the emission wavelength is blue-shifted relative to the excitation wavelength, which is impossible in traditional fluorescent assays. The relatively long path length of 200 nm that singlet molecular oxygen can travel enables reporting on full protein complexes and not just single target binding. […] Neither the small molecules being tested nor the target protein, CBX7, need to be chemically, conformationally, or behaviorally altered by tethering them to a surface or reporter that may decrease physiological relevance and beget screening artifacts. The primary assay monitors binding of the chromodomain of CBX7 to a histone tail containing a trimethylated lysine at K27, the biologically relevant interaction through which PRC binds to chromatin to repress transcription. This is a robust proximity-based assay that utilizes AlphaScreen technology (PerkinElmer). The assay consists of His6-CBX7 bound to a Ni^++ acceptor bead and the biotinylated histone tail bound to a streptavadin donor bead. Upon CBX7/H3K27me3 binding, the steptavidin bead comes into proximity with the Ni^++ bead to luminesce upon light excitation ([…]; see below).
The protocol for the CBX7 AlphaScreen was as follows: a standard alpha buffer (50 mM HEPES, 150 mM NaCl, 0.1% w/v BSA, 0.01% w/v Tween20) at pH 8.0 and make up two stock solutions at 2× final concentration in the alpha buffer. Solution A contains Human His6-CBX7 is used with biotinylated-H3K27me3 (residues 20-34), at 100 nM and 50 nM respectively. Solution B contains 20 nM streptavidin donor beads and 20 nM nickel acceptor beads. For 384 well assay formats, 10 uL of solution A is added to each well of the assay plate and the plate is spun at 1000 rpm for 30 seconds. 100 nL of experimental compounds from stock plates are delivered by robotic pin transfer using a Janus Workstation (PerkinElmer), allowing the compounds to interact with CBX7 binding prior to assay measurement, followed by another spin and an incubation room temperature. Finally, 10 uL of solution B is added to each well, the plate is spun again and then incubated at room temperature. AlphaScreen measurements are performed on an Envision 2104 (PerkinElmer) utilizing the manufacturer's protocol that has the correct excitation and emission wavelengths, cutoff filters, delay time, etc. A crosstalk calculation is also done through the Envision software to correct for luminescence for adjacent wells while reading the plate. The signal is then normalized to DMSO control wells on the compound plate prior to creation of the IC50 curves.

CBX7 = CBX7 (Homo sapiens (Human), UniProt O95931); test: Isothermal titration calorimetry; format: binding; settings: in words (FIG. 20)
Sequence of CBX7 (O95931 whole entry): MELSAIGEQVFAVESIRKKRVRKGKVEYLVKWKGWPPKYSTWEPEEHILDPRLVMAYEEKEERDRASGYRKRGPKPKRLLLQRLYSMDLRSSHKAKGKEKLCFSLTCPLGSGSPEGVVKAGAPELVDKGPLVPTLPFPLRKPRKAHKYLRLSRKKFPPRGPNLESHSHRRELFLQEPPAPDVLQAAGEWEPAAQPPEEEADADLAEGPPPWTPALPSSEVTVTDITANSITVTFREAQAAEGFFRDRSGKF
Description: A new series of compounds were designed and synthesized based on computational modeling of inhibitor compounds with the literature reported crystal structure of CBX.

Compound: O=C(CC1S/C(=N/N=C/c2cccnc2)NC1=O)Nc1ccc(N2CCCC2)cc1 (centres unmarked) [ACV-14 (2)]
- IC50 [1]: 115 µM
- IC50 (Human His6-CBX7): 10.2 µM

Compound: O=C(CC1S/C(=N/N=C/c2ccc(O)c(O)c2O)NC1=O)Nc1ccc(N2CCCC2)cc1 (centres unmarked) [ACV-17 (1), 2-(4-oxo-2-((2,3,4-trihydroxybenzylidene)hydrazono)thiazolidin-5-yl)-N-(4-(pyrrolidin-1-yl)phenyl) acetamide]
- % Viability ([1]; 50 uM, listed as 1-258C): 33.0%
- viability at 10 µM ([1]; 10 uM): 72.2%
- IC50 (Human His6-CBX7): 69.7 µM

Compound: O=C(CC1S/C(=N/N=C/c2ccc(O)c(O)c2O)NC1=O)Nc1ccc(N2CCCC2)cc1 (centres unmarked) [ACV-17 (2)]
- % Viability ([1]; 50 uM, listed as 2-165): 58.8%
- IC50 [1]: 0.334 µM
- IC50 (Human His6-CBX7): 0.93 µM

Compound: O=C(CC1S/C(=N/N=C/c2ccc(O)c(O)c2O)NC1=O)Nc1ccc(N2CCCC2)cc1 (centres unmarked) [ACV-17(CP)]
- % Viability ([1]; 50 uM, listed as 258C (CP)): 20.3%
- IC50 (Human His6-CBX7): 1.74 µM

Compound: COC(=O)C1CSC(CC(=O)Nc2ccc(N3CCCC3)cc2)C(=O)N1 (centres unmarked) [ACV-22]
- binding affinity by isothermal titration calorimetry (CBX7): further confirmed
- binding affinity with CBX (Human His6-CBX7; in words (FIG. 9)): low micromolar

Compound: O=C(Cc1cnc(NC(=O)Nc2cccnc2)s1)Nc1ccc(N2CCCC2)cc1 [ACV-40, 2-(2-(3-(pyridin-3-yl)ureido)thiazol-5-yl)-N-(4-(pyrrolidin-1-yl)phenyl)acetamide]
- viability at 10 µM ([1]; 10 uM): 99%
- viability at 50 µM ([1]; 50 uM): 82.9%
- IC50 [1]: 83.9 µM
- IC50 (Human His6-CBX7): 12.8 µM

Compound: CN(C)c1ccc(CCNC(=O)CC2S/C(=N/N=C/c3cccnc3)NC2=O)cc1 (centres unmarked) [ACV-42]
- viability at 50 µM ([1]; 50 uM): 95.8%
- IC50 [1]: 1000 µM
- IC50 (Human His6-CBX7): 155 µM

Compound: CN1CCN(CCNC(=O)CC2S/C(=N/N=C/c3ccc(O)c(O)c3O)NC2=O)CC1 (centres unmarked) [ACV-63 (CP)]
- % Viability ([1]; 10 uM, listed as 2-195 (CP)): 34.9%
- viability at 20 µM [1]: 41%
- viability at 50 µM ([1]; 50 uM): 60.6%
- IC50 (Human His6-CBX7): 5.31 µM

Compound: CN1CCN(CCNC(=O)CC2S/C(=N/N=C/c3ccc(O)c(O)c3O)NC2=O)CC1 (centres unmarked) [ACV-63, N-(2-(4-methylpiperazin-1-yl)ethyl)-2-(4-oxo-2-((2,3,4-trihydroxybenzylidene)hydrazono)thiazolidin-5-yl)acetamide]
- % Viability ([1]; 10 uM, listed as 2-195): 94.2%
- % Viability ([1]; 50 uM, listed as 2-195): 43.5%
- IC50 (Human His6-CBX7): 0.183 µM

Compound: O=C(CC1SC(N/N=C/c2ccc(O)c(O)c2O)=NC1=O)Nc1ccc(N2CCCCC2)cc1 (centres unmarked) [ACV-78]
- IC50 (Human His6-CBX7): 0.225 µM

Compound: O=C(NCCN1CCCC1)c1ccc(-c2csc(N/N=C/c3cccnc3)n2)cc1 [ACV-79]
- IC50 (Human His6-CBX7): 3.01 µM

Compound: O=C(COCc1ccc(CN2CCCC2)cc1)N[C@H]1CCCN(Cc2cccnc2)C1=O [ACV-80]
- IC50 (Human His6-CBX7): 2.86e-05 µM

Compound: CN1CCN(CCNC(=O)Cc2cnc(NC(=O)Nc3cccnc3)s2)CC1 [ACV-81]
- IC50 (Human His6-CBX7): 104 µM

Compound: COc1ccc(CC(=O)Nc2ncc(CC(=O)NCCN3CCN(C)CC3)s2)c(OC)c1OC [ACV-82]
- IC50 (Human His6-CBX7): 50.8 µM

Compound: COc1ccc(CC(=O)Nc2nc(CC(=O)Nc3ccc(N4CCCC4)cc3)cs2)c(OC)c1OC [ACV-83]
- IC50 (Human His6-CBX7): 23.9 µM

Compound: O=C(CC12SC(CCN3CCOCC3)(NC1=O)C1C(=O)N(c3ccc(N4CCCC4)cc3)C(=O)C12)Nc1ccc(N2CCCC2)cc1 (centres unmarked) [ACV-84]
- IC50 (Human His6-CBX7): 7.26 µM

Compound: CN1CCN(CCNc2nc(CC(=O)Nc3ccc(N4CCCC4)cc3)cs2)CC1 [ACV-85]
- IC50 (Human His6-CBX7): 54.8 µM

Compound: O=C(CC1SC(N/N=C/c2ccc(O)c(O)c2O)=NC1=O)Nc1ccc(N2CCCCCC2)cc1 (centres unmarked) [ACV-86]
- IC50 (Human His6-CBX7): 11.8 µM

Compound: COC(=O)Cc1csc(N/N=C/c2ccc(O)c(O)c2O)n1 [ACV-87]
- IC50 (Human His6-CBX7): 7.26 µM

Compound: COc1ccc(NC(=O)Cc2csc(NCCN3CCN(C)CC3)n2)c(OC)c1 [ACV-88]
- IC50 (Human His6-CBX7): 246 µM

Compound: O=C(Nc1ccc(N2CCCC2)cc1)c1ccc(-c2csc(CCN3CCOCC3)n2)cc1 [ACV-89]
- viability at 10 µM ([1]; 10 uM): 31.3%
- viability at 20 µM [1]: 29%
- viability at 50 µM ([1]; 50 uM): 28%
- IC50 (Human His6-CBX7): 12.9 µM

Compound: COC(=O)c1ccc2nc(-c3ccc(O)c(O)c3O)c(NCc3ccccc3)n2c1 [ACV-91]
- viability at 10 µM ([1]; 10 uM): 33.5%
- viability at 20 µM [1]: 30.5%
- viability at 50 µM ([1]; 50 uM): 18%
- IC50 (Human His6-CBX7): 12 µM

Compound: O=C(N/N=C/c1ccc(N2CCCC2)cc1)c1ccc(-c2csc(NCCc3cccnc3)n2)cc1 [ACV-92]
- IC50 (Human His6-CBX7): 170 µM

Compound: COC(=O)Cc1cnc(NC(=O)c2ccc(CCN3CCCC3)cc2)s1 [ACV-93]
- IC50 (Human His6-CBX7): 440 µM

Compound: c1cn2c(NC3CCCCC3)c(-c3ccc4[nH]ncc4c3)nc2cn1 [ACV-94]
- IC50 (Human His6-CBX7): 123 µM

Compound: COc1ccc(CC(=O)Nc2nc3cc(C(=O)NCCN4CCN(C)CC4)ccc3s2)cc1OC [ACV-95]
- IC50 (Human His6-CBX7): 879 µM

Compound: O=C(Cc1ccc(O)c(O)c1)NCc1nc(CC(=O)Nc2ccc(N3CCCC3)cc2)cs1 [ACV-96]
- IC50 (Human His6-CBX7): 79.3 µM

Compound: O=C(c1ccc(-c2csc(NCCc3cccnc3)n2)cc1)N1CCC(N2CCCC2)CC1 [ACV-97]
- IC50 (Human His6-CBX7): 81.7 µM

Compound: CN1CCN(CCNC(=O)c2ccc(-c3csc(NCCc4cccnc4)n3)cc2)CC1 [ACV-98]
- IC50 (Human His6-CBX7): 121 µM

Compound: O=C(Nc1ccc(N2CCCC2)cc1)c1ccc(-c2csc(NCCc3cccnc3)n2)cc1 [ACV-99]
- IC50 (Human His6-CBX7): 16.4 µM

Compound: O=C(CC1SC(N2CCC(c3ccc(O)c(O)c3O)=N2)=NC1=O)Nc1ccc(N2CCCC2)cc1 (centres unmarked) [CBX-08, 2-(4-oxo-2-(3-(2,3,4-trihydroxyphenyl)-4,5-dihydro-1H-pyrazol-1-yl)-4,5-dihydrothiazol-5-yl)-N-(4-(pyrrolidin-1-yl)phenyl)acetamide]
- IC50 (Human His6-CBX7): 0.835 µM

Compound: CN1CCN(CCNC(=O)CC2SC(N3CCC(c4ccc(O)c(O)c4O)=N3)=NC2=O)CC1 (centres unmarked) [CBX-09, N-(2-(4-methylpiperazin-1-yl)ethyl)-2-(4-oxo-2-(3-(2,3,4-trihydroxyphenyl)-4,5-dihydro-1H-pyrazol-1-yl)-4,5-dihydrothiazol-5-yl)acetamide]
- IC50 (Human His6-CBX7): 53.4 µM

Compound: O=C(CC1S/C(=N\N=C\c2cccnc2)NC1=O)Nc1cccc(Cl)c1Cl (centres unmarked) [JQI-III-263-A]
- activity in CBX AlphaScreen assay (Human His6-CBX7; cap scan of Scaffold 3, in words (FIG. 8)): improved activity
